Test results reported in ChEMBL document CHEMBL3991601, “The target landscape of clinical kinase drugs” (Science, 2017).
Active and inactive are the calls of the source.

Tests used:
Aurora kinase B = Aurora kinase B (Homo sapiens, UniProt Q96GD4)
Deoxycytidine kinase = Deoxycytidine kinase (Homo sapiens, UniProt P27707)
Ephrin type-B receptor 2 = target: T1, Ephrin type-B receptor 2 (Homo sapiens, UniProt P29323)
T1 sequence (P29323 whole entry): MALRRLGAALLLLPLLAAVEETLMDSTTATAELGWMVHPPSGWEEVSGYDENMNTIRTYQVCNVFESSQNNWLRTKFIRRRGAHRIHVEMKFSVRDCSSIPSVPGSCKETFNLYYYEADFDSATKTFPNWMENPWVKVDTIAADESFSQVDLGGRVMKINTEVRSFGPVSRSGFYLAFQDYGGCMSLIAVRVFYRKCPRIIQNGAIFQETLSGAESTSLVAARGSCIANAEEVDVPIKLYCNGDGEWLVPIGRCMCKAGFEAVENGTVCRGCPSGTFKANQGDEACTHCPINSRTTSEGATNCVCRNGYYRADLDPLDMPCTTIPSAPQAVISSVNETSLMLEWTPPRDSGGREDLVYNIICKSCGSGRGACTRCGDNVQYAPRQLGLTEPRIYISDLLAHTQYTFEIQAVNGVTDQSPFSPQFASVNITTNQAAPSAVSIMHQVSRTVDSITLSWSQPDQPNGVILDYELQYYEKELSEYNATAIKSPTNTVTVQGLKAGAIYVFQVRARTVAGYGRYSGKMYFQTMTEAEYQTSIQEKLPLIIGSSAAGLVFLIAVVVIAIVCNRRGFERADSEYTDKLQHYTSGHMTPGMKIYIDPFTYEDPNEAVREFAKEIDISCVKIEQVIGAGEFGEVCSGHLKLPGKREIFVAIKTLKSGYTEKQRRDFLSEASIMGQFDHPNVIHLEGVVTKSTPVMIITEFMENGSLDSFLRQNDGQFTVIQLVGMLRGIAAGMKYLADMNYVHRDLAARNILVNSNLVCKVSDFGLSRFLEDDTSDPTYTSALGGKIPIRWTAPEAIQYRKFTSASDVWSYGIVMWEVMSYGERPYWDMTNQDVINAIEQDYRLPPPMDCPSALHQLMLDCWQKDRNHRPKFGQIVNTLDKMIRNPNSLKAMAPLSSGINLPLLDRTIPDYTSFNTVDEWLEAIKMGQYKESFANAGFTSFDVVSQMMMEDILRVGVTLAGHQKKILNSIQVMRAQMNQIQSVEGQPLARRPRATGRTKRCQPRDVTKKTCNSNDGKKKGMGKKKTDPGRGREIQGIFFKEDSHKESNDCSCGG

[1] = target: T2, Phenylalanine--tRNA ligase beta subunit (Homo sapiens, UniProt Q9NSD9)
T2 sequence (Q9NSD9 whole entry): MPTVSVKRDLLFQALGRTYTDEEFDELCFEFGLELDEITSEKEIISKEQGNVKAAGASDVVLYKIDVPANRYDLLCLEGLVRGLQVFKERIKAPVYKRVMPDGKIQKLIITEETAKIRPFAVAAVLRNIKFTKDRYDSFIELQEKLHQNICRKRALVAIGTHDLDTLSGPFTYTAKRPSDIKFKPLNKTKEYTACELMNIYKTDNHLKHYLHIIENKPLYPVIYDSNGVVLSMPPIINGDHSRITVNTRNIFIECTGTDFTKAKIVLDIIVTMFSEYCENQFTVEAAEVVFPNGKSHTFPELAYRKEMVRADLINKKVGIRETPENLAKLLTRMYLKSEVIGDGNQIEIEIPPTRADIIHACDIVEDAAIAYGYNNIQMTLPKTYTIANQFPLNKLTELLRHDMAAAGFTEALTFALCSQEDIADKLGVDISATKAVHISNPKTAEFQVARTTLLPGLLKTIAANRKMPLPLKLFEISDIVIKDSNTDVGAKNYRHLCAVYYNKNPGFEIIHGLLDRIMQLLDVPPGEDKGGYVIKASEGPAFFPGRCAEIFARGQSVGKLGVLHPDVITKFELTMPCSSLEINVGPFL

[2] = target: Glycogen synthase kinase-3 alpha (Homo sapiens, UniProt P49840)
[3] = target: T3, Serine/threonine-protein kinase STK11 (Homo sapiens, UniProt Q15831)
T3 sequence (Q15831 whole entry): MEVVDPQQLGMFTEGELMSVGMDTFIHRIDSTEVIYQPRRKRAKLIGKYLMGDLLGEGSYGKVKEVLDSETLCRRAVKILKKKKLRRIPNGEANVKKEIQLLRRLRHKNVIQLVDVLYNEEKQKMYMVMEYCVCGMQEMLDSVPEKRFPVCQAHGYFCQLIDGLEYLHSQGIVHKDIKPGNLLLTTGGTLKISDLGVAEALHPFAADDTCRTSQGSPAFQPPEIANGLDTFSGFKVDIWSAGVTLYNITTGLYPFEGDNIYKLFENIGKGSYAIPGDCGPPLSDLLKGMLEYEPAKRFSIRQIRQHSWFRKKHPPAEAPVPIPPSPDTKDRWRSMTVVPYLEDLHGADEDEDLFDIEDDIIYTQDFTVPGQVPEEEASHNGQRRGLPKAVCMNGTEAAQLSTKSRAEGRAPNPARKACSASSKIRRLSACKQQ
Also: in the data inactive means no Kd found up to 30 µM.

Chain of Glycogen synthase kinase-3 alpha (P49840 whole entry): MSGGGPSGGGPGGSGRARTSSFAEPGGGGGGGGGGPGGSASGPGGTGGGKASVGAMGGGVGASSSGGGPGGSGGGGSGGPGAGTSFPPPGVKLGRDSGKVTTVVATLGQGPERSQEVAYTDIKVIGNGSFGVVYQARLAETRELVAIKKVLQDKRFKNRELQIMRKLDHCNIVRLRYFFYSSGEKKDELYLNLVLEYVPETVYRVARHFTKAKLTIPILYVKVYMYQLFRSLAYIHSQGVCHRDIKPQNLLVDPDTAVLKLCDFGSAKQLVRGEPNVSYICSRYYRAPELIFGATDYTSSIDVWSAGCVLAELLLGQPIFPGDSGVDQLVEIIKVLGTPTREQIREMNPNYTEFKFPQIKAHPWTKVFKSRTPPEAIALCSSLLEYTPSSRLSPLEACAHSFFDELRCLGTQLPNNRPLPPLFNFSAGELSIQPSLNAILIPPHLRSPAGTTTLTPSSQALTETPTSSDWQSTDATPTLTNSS
Chain of Aurora kinase B (Q96GD4 whole entry): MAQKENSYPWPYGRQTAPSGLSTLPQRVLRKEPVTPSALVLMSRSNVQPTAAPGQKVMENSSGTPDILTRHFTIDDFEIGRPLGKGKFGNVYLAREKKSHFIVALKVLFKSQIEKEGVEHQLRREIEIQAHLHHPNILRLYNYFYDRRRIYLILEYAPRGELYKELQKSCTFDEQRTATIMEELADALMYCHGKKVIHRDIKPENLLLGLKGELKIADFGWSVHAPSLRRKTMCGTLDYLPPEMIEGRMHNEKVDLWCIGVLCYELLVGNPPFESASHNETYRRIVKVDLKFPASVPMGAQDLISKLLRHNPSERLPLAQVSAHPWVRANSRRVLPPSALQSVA
Chain of Deoxycytidine kinase (P27707 whole entry): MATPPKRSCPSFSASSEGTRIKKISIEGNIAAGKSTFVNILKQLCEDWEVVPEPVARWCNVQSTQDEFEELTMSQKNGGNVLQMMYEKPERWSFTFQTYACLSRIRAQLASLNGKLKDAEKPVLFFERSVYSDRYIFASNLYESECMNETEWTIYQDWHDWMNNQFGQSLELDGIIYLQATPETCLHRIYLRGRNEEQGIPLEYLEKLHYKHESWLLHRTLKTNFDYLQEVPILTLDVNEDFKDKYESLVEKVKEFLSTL

Kd (Aurora kinase B)	Kd (Deoxycytidine kinase)	Kd (Ephrin type-B receptor 2)	Kd [1]	Kd [2]	Kd [3]	Structure (SMILES)
> 30 µM (inactive)	> 30 µM (inactive)	> 30 µM (inactive)	> 30 µM (inactive)	> 30 µM (inactive)	> 30 µM (inactive)	CC(C)Nc1cc(-c2c[nH]c(C(=O)N[C@H](CO)c3cccc(Cl)c3)c2)c(Cl)cn1 [ULIXERTINIB]
> 30 µM (inactive)	> 30 µM (inactive)	> 30 µM (inactive)	> 30 µM (inactive)	> 30 µM (inactive)	> 30 µM (inactive)	CNC(=O)c1ccc(C)c(-n2c(C)cc(OCc3ccc(F)cc3F)c(Br)c2=O)c1 [PH-797804]
> 30 µM (inactive)	> 30 µM (inactive)	53.2 µM (active)	> 30 µM (inactive)	> 30 µM (inactive)	> 30 µM (inactive)	Cc1ccc(NC(=O)c2ccc(CN3CC[C@H](N(C)C)C3)c(C(F)(F)F)c2)cc1Nc1nccc(-c2cncnc2)n1 [BAFETINIB]
> 30 µM (inactive)	> 30 µM (inactive)	> 30 µM (inactive)	> 30 µM (inactive)	> 30 µM (inactive)	> 30 µM (inactive)	COc1ccc(-c2ccc3c(N4CCOC[C@@H]4C)nc(N4CCOC[C@@H]4C)nc3n2)cc1CO [AZD-8055]
> 30 µM (inactive)	> 30 µM (inactive)	> 30 µM (inactive)	> 30 µM (inactive)	> 30 µM (inactive)	> 30 µM (inactive)	CNC(=O)c1ccc(-c2cnc3ncc(Cc4ccc5ncccc5c4)n3n2)cc1F [CAPMATINIB]
1.67 µM	> 30 µM (inactive)	> 30 µM (inactive)	> 30 µM (inactive)	> 30 µM (inactive)	> 30 µM (inactive)	COc1cc(CCc2cc(NC(=O)c3ccc(N4C[C@@H](C)N[C@@H](C)C4)cc3)n[nH]2)cc(OC)c1 [AZD-4547]

Structure (SMILES)	Kd (Aurora kinase B)	Kd (Deoxycytidine kinase)	Kd (Ephrin type-B receptor 2)	Kd [1]	Kd [2]	Kd [3]
COC(=O)[C@@]1(O)C[C@H]2O[C@]1(C)n1c3ccccc3c3c4c(c5c6ccccc6n2c5c31)C(=O)NC4 [K-252A]	0.353 µM (active)	> 30 µM (inactive)	> 30 µM (inactive)	> 30 µM (inactive)	> 30 µM (inactive)	> 30 µM (inactive)
Cc1ccc(-n2nc(C(C)(C)C)cc2NC(=O)NCc2cc(F)ccc2Oc2ccc3c(cnn3CCO)c2)cc1 [PEXMETINIB]	> 30 µM (inactive)	> 30 µM (inactive)	> 30 µM (inactive)	> 30 µM (inactive)	> 30 µM (inactive)	> 30 µM (inactive)
